Experiments:
Balb/c mice = experiment: Light model assay (light damage), eye drops, rows of photoreceptors; format: in vivo, mouse; details: 100 μM eye drops once daily; continuous light for 7 days; maximum effect
Description: The light model assay is generally accepted as a model of age related macular degeneration (AMD). […] In particular, oxidative damage has been detected by immunohistochemistry, detecting the presence of oxidized and tyrosine-phosphorylated proteins as well as the upregulation of endogenous antioxidants such as thioredoxin and glutathione peroxidase.
The light model assay was used to further test the therapeutic potential of the compounds of the invention. Photoreceptors from albino animals are very sensitive to constant light, lacking the RPE pigment to protect them. […] To test the potential therapeutic efficacy, eye drops were formulated in 0.1% Myrj in 0.9% saline, applied once daily throughout the period of light exposure, and their effect assessed on the light-induced degeneration of photoreceptor cells morphologically and electrophysiologically, 10 days after the onset of the CL exposure.

rd1 mouse = experiment: Rd1 mouse model of RP (retina organ culture), rows of photoreceptors; format: cell-based; details: 10 nM; equivalent of postnatal day 21; P = 0.04; rd1 vehicle 1.81 ± 0.09
Procedure: For the calcium-overload in vitro, the rd1 mouse was utilized (e.g., Farber et al., 1995). […] To test the potential therapeutic efficacy, compounds were added to the culture media starting the day after the start of the culture (equivalent to postnatal day 11) and replaced every 48 hours. Effects were assessed on the degeneration of photoreceptor cells morphologically at the equivalent of postnatal day 21.

rd10 mouse = experiment: Rd10 mouse model of RP, eye drops, rows of photoreceptors; format: in vivo; details: 100 μM eye drops once daily from postnatal day 14, assessed at postnatal day 25; P < 0.005; vehicle 2.3 ± 0.23
Description: To test the potential therapeutic efficacy, eye drops were formulated in 0.1% Myrj in 0.9% saline, applied once daily starting at the day of eye opening (postnatal day 14), and their effect assessed on the degeneration of photoreceptor cells morphologically at postnatal day 25.

661W or C6 cells = experiment: Metabolic Protection Assay (MTT), protection from calcium-ionophore A23187; format: cell-based; details: 1 μM ionophore, 24 h
Procedure: The compound 3-(4,5-Dimethylthiazol-2-yl)-2,5-diphenyltetrazolium bromide (MTT) is a tetrazolium ion that is reduced to a blue formazan dye via several families of NAD(P)H-dependent oxidoreductases. Formation of the formazan dye from MTT or other related tetrazolium dyes are commonly used as a viability assay even though, in fact, the assay is a metabolic capacity assay.
In this assay, 661W or C6 cells were maintained in DMEM supplemented with 10% serum. 100 of 70,000 cells/mL cells were seeded into each well of 96 well plates using DMEM supplemented with 5% serum. Cells were then allowed to grow to confluency for 48 hours. Representative compounds of the invention were added in 2 μL media and calcium-ionophore A23187 was then added in 1 μL for a final concentration of 1 μM and after 24 h, 20 uL of […] MTT were added to each well and the cells were incubated for another 4 h after which 100 μL of 1% SDS in 0.01 M aqueous HCl were added to each well and the plates were incubated overnight. Absorbance was measured at […] (background correction). The 1 μM ionophore A23187 caused about 50% loss in MTT signal at 24 h. Protection was calculated as the increase in absorbance of treatment groups normalized to the vehicle control.

| SMILES | LD Protection (# of rows) (Balb/c mice) | rd1 protection (# of rows) (rd1 mouse) | rd10 protection (# of rows) (rd10 mouse) | loss in MTT signal (661W or C6 cells) |
| --- | --- | --- | --- | --- |
| CCN1C(=O)C(O)(Cc2cccc3c2OCO3)c2cc(C)ccc21 (stereo not drawn) [Example 17, 3-(benzo[d][1,3]dioxol-4-ylmethyl)-1-ethyl-3-hydroxy-5-methylindolin-2-one] | (100 μM) 6.48 ± 0.13 (P < 0.001) # of rows | – | – | – |
| CCN1C(=O)C(Cc2cccc(OC)c2O)(OC(=O)N(C)C)c2cc(Cl)ccc21 (stereo not drawn) [Example 10, 5-chloro-1-ethyl-3-(2-hydroxy-3-methoxybenzyl)-2-oxoindolin-3-yl dimethylcarbamate] | (100 μM) 5.8 ± 0.34 (P < 0.001) # of rows | (10 nM) 2.51 ± 0.25 (P = 0.04) # of rows | (100 μM) 2.8 ± 0.48 (P < 0.005) # of rows | – |
| CCN1C(=O)C(Cc2cccc(OC)c2OC(=O)NCCOCCO)(OC(=O)c2ccccc2)c2cc(Cl)ccc21 (stereo not drawn) [Example 12, 5-chloro-1-ethyl-3-(2-(((2-(2-hydroxyethoxy)ethyl)carbamoyl)oxy)-3-methoxybenzyl)-2-oxoindolin-3-yl benzoate] | (100 μM) 4.87 ± 0.22 (P < 0.01) # of rows | – | – | – |
| CNc1ccc2oc(C[C@H]3O[C@@]4(CC[C@H]3C)O[C@H]([C@H](C)C(=O)c3ccc[nH]3)[C@H](C)C[C@H]4C)nc2c1C(=O)O [Example A23187] | – | – | – | about 50% |

From patent US10370328B2, “Oxindole compounds and pharmaceutical compositions thereof” (MUSC FOUNDATION FOR RESEARCH DEVELOPMENT, priority 2015, dated 2019)
